From US20250099420A1, “SMALL MOLECULE MODULATORS OF GPR139 COMPLEX” (University of Florida Research Foundation, Incorporated, priority 2022, published 2025) come the findings set out here.

One series has as its target T1, GPR139 (Homo sapiens, UniProt Q6DWJ6).
T1 sequence (Q6DWJ6 1-353): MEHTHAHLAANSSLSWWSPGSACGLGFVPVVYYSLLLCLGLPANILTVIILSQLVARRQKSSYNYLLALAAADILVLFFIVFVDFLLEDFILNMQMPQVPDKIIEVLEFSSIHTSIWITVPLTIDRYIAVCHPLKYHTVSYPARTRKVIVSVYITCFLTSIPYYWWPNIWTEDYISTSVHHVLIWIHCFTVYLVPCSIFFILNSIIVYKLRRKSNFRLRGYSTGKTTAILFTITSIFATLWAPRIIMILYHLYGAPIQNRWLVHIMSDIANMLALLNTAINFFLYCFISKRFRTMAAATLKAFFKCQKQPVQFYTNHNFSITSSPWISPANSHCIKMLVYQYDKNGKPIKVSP
The series is described as follows: GPR139 Agonist titration / agonist counterscreen assay (calcium detection, HEK-GPR139 cells). Type of series: cell-based. Conditions: GPR139 Agonist Activity; for EC50: read-out: EC50; for Averaged Max % Response (±St. Dev.): activity relative to known control. More on the design: expressed in transfected cells; host or cells: HEK Aequorin cells, Maxcyte transient transfection. Here is the method:
GPR activity was assessed using a calcium detection assay. […] Negative control samples were treated with DMSO. […] Intracellular calcium was measured using Calcium 5.

For a further series, the system named is parental HEK cells. The series is described as follows: HEK parental Agonist Counterscreen Assay (non-transfected cells). The format is cell-based. Conditions: for Averaged Max % Response (±St. Dev.): activity relative to known control. The source says:
The high control for the agonist counterscreen was Forskolin not acetylcholine.

[1] abbreviates: HEK Agonist Activity section of Table 4 (parental HEK counterscreen).
The mark [2] stands for this setting: Homo sapiens, HEK293, HEK Agonist Activity section of Table 4 (parental HEK counterscreen).
Setting [3] is: values printed in E-notation without unit.
The mark [4] stands for this setting: Homo sapiens, HEK293, HEK Agonist Activity, parental non-transfected HEK cells.

The structures appear in SMILES notation. Read-outs that look alike come from different tables or passages of the source.

Turning to `COc1ccc(CCN2CC3=C(C2=O)C(c2ccc(F)c(F)c2)NC(=O)N3)cc1` (stereo not drawn) [SR-01000335002], on GPR139, the “Efficiency Ligand” value was 0.31, the “Hill Slope” value turned out to be 0.68, the “Lipophilic Efficiency (logD)” value stood at 4.62 and the “Lipophilic Efficiency (logP)” value came out at 4.62. The “Averaged Max % Response (±St. Dev.)” value on GPR139 was found to be 86.79 ± 17.90%. For the same molecule, the EC50 on GPR139 (HEK-GPR139 cells) was 0.422 µM. For the same molecule, in the series on parental HEK cells (HEK Agonist Activity section), the “Lipophilic Efficiency (logD)” value came to 3.09, the “Lipophilic Efficiency (logP)” value turned out to be 3.09 and the “Averaged Max % Response (±St. Dev.)” value is 20.28 ± 3.20%. Moreover, the half-maximal effective concentration (EC50) in the series with parental HEK cells (setting [1]) is greater than 14.1 µM.

Regarding `COc1ccc(CCn2nc(-c3cccnc3)[nH]c2=O)cc1` [SR-01000335115], at GPR139, the “Efficiency Ligand” value came out at 0.38, the “Hill Slope” value came to 1.29, the “Lipophilic Efficiency (logD)” value is 3.37 and the “Lipophilic Efficiency (logP)” value is given as 3.37. The “Averaged Max % Response (±St. Dev.)” value on GPR139 came out at 86.17 ± 9.84%. Moreover, the EC50 at GPR139 (HEK-GPR139 cells) came out at 1.3 µM. In the series on parental HEK cells (HEK Agonist Activity section), the “Lipophilic Efficiency (logD)” value was 2.33, the “Lipophilic Efficiency (logP)” value is listed as 2.33 and the “Averaged Max % Response (±St. Dev.)” value is given as 12.86 ± 9.78%. Further, the EC50 with parental HEK cells (setting [2]) is greater than 14.1 µM.

For the molecule `COc1ccccc1NC(=O)NNC(=O)CN1C(=O)COc2ccccc21` [SR-01000336035], the “Averaged Max % Response (±St. Dev.)” value on GPR139 was 100.35 ± 10.43%; with parental HEK cells (HEK Agonist Activity section), −5.99 ± 6.97%. Besides, the “Lipophilic Efficiency (logD)” value was found to be 6.65 on GPR139 (based on logD) and 4.40 with parental HEK cells (HEK Agonist Activity section). Further, the “Lipophilic Efficiency (logP)” value is on record as 6.65 at GPR139 (based on logP) and 4.40 in the series on parental HEK cells (HEK Agonist Activity section). Also, the “Hill Slope” value at GPR139 (fitted dose-response curve) is recorded as 0.39. Further, at GPR139 (ligand efficiency), the “Efficiency Ligand” value came out at 0.37. The EC50 was 0.0797 µM on GPR139 (setting [3]) and greater than 14.1 µM in the series on parental HEK cells (setting [2]).

For the molecule `CCCc1nn(CC(=O)NCc2nc3ccccc3n2C)c(=O)c2cc3ccsc3n12` [SR-01000336681], at GPR139, the “Efficiency Ligand” value came to 0.26, the “Hill Slope” value is 1.92, the “Lipophilic Efficiency (logD)” value is listed as 3.33 and the “Lipophilic Efficiency (logP)” value came to 3.33. At GPR139, the “Averaged Max % Response (±St. Dev.)” value amounted to 81.02 ± 6.69%. For the same molecule, the EC50 at GPR139 (HEK-GPR139 cells) was 1.6 µM. For the same molecule, in the series on parental HEK cells (HEK Agonist Activity section), the “Lipophilic Efficiency (logD)” value was 2.37, the “Lipophilic Efficiency (logP)” value came to 2.37 and the “Averaged Max % Response (±St. Dev.)” value was 4.99 ± 7.59%. Further, in the series with parental HEK cells (setting [1]), the EC50 is greater than 14.1 µM.

On to `Cc1ccc(C(=O)NNC(=O)CSc2nnc(Cn3cnc4ccccc43)o2)cc1` [SR-01000337370], for which the “Averaged Max % Response (±St. Dev.)” value is 96.26 ± 15.22% at GPR139 and 23.00 ± 5.22% in the series with parental HEK cells (HEK Agonist Activity section). Besides, the results for the “Lipophilic Efficiency (logD)” value on GPR139 (based on logD) and with parental HEK cells (HEK Agonist Activity section) were 5.62 and 3.15, respectively. Besides, the “Lipophilic Efficiency (logP)” value on GPR139 (based on logP) was 5.61; in the series on parental HEK cells (HEK Agonist Activity section), 3.14. Also, the “Hill Slope” value at GPR139 (fitted dose-response curve) came out at 0.87. The “Efficiency Ligand” value at GPR139 (ligand efficiency) turned out to be 0.34. For the same molecule, the results for the EC50 on GPR139 (setting [3]) and in the series on parental HEK cells (setting [1]) were 0.0475 µM and greater than 14.1 µM, respectively.

On to `COc1ccc(-c2nnn(CC(=O)NCCc3c[nH]c4ccccc34)n2)cc1OC` [SR-01000339494], for which the “Averaged Max % Response (±St. Dev.)” value at GPR139 amounted to 107.79 ± 9.70%; with parental HEK cells (HEK Agonist Activity), 13.92 ± 7.54%. Also, the “Lipophilic Efficiency (logD)” value on GPR139 (based on logD) is recorded as 5.30; with parental HEK cells (HEK Agonist Activity), 1.97. Besides, the “Lipophilic Efficiency (logP)” value on GPR139 (based on logP) was 5.30; with parental HEK cells (HEK Agonist Activity) it was 1.97. Moreover, on GPR139 (fitted dose-response curve), the “Hill Slope” value is 0.87. The “Efficiency Ligand” value at GPR139 (ligand efficiency) is 0.38. Further, the EC50 in the series with parental HEK cells (setting [4]) was greater than 14.1 µM.

For the molecule `COc1ccccc1C(=O)NNC(=O)C(C)Oc1ccc(Cl)cc1Cl` (stereo not drawn) [SR-01000356020], the “Averaged Max % Response (±St. Dev.)” value on GPR139 was 106.05 ± 9.09%; with parental HEK cells (HEK Agonist Activity), 1.37 ± 3.30%. In addition, the “Lipophilic Efficiency (logD)” value at GPR139 (based on logD) is listed as 4.30; in the series with parental HEK cells (HEK Agonist Activity) it was 1.52. The “Lipophilic Efficiency (logP)” value at GPR139 (based on logP) is listed as 4.27; in the series on parental HEK cells (HEK Agonist Activity), 1.48. The “Hill Slope” value at GPR139 (fitted dose-response curve) stood at 0.91. Further, the “Efficiency Ligand” value on GPR139 (ligand efficiency) is given as 0.43. Further, the values for the EC50 on GPR139 (setting [3]) and in the series on parental HEK cells (setting [4]) were 0.023 µM and greater than 14.1 µM, respectively.
